Data taken from patent publication US9682024B2, “Protection against sunburn and skin problems with topical and orally-ingested dosages of zeaxanthin” (ZeaVision, LLC, priority 2002, dated 2017).

Assays:
[1] = system: human fibroblast cells; conditions: Eichler et al 2002; cited from earlier work
[2] = according to Lorenz, US 6,433,025; cited from earlier work
[3] = cited from earlier work
[4] = reported to US-FDA by Roche Vitamins Inc.; cited from earlier work
[5] = system: skin; assay: Darkening of skin color after oral zeaxanthin; type: in vivo, human
Method: (§1) That dosage was in the range of about 60 mg of zeaxanthin per day for roughly 2 weeks, then about 80 mg/day for a week).
(§2) One coworker began taking 10 mg/day during April, and increased to 20 mg/day during May, and then increased to 40 mg/day during June. […] In July, they increased their dosage to 80 mg/day during several week-long periods, to see what effect it would have on skin color, and on sunburn resistance.
(§3) After seeing and hearing the highly positive results obtained by the two people described in Examples 1 and 2, another coworker decided to also begin taking zeaxanthin at 40 mg/day, starting a couple of weeks before going on a summer vacation with their family.
(§4) A third coworker began taking 10 mg of zeaxanthin per day. Although they were aware of the above-described anecdotal reports of sunburn protection being provided by higher dosages, they decided to not alter their dosage, and they stayed at a dosage of 10 mg/day.
Promptly after that baseline determination, this person began ingesting 30 mg of zeaxanthin per day (10 mg with […] morning meal, and 20 mg with […] evening meal, using the 10 mg capsules available from ZeaVision LLC). During that time, […] continued to take the same anti-oxidant regimen as before. […] […] then re-tested […], using the same UV lamp and procedures as before.

[6] = system: skin; assay: Sunburn protection during prolonged exposure to direct sunlight after oral zeaxanthin; type: in vivo, human
Method: as §1
While in the Caribbean, they intentionally exposed themself to direct sunlight at a substantially higher intensity than they normally received in their home state of Missouri, for sufficient periods of time to give them an “onset” type of sunburn, which would convert to a suntan over a span of several days if they took proper care of their skin and put lotion on it. […] Instead, any mild redness they experienced in the evening, at the end of a day with a prolonged session in the sun, was not accompanied by sensations of pain, burning, tightness, or dryness in the skin, and it converted to a normal (or slightly reddish, but not uncomfortable) suntan within less than 24 hours.
as §2
On a couple of weekend days during July, and during a family vacation in early August, they deliberately subjected themself to prolonged sun exposure without any sun-blocking lotion, including sessions that normally would have caused them substantial or severe sunburns accompanied by serious discomfort. Instead of receiving those types of sunburns, by the evening of a day like that, they could detect some redness in their skin color, and a heightened condition of skin sensitivity; however, they felt no serious discomfort or sense of “radiating heat” in their skin, and no interference with their ability to sleep comfortably; in addition, by the following day, the redness appeared to be entirely gone.
as §3, §4

[7] = Tolerability and excretion of high oral zeaxanthin dosages; type: in vivo, human
[8] = in vivo
Text: One aspect of that project involved testing both zeaxanthin and lutein, in various dosages and formulations, to evaluate the increases that would result in circulating blood, and in retinal tissue, in human volunteers. A set of tests on human volunteers was developed with assistance by outside experts with skill and experience in that type of planning, and proper steps were taken to obtain informed consent from all volunteers.

[9] = system: skin; assay: Minimal erythemal dosage (MED) test with medical-grade UV lamp after oral zeaxanthin; type: in vivo, human
[10] = system: skin cells in culture; conditions: quoted from Biesalski et al 2001; cited from earlier work
[11] = system: lung cancer; conditions: smokers; daily ingestion of 30 to 60 mg/day; cited from earlier work
[12] = system: skin diseases such as porphyria; conditions: cited from earlier work
[13] = system: retinas; conditions: in vivo; cited from earlier work

In the case of `CC1=C[C@H](O)CC(C)(C)[C@H]1/C=C/C(C)=C/C=C/C(C)=C/C=C/C=C(C)/C=C/C=C(C)/C=C/C1=C(C)C[C@@H](O)CC1(C)C` [lutein], the “amount of carotenoid needed for optimal protection” value (“amount of carotenoid needed” for short) [1] is listed as 0.30 nmol/mg protein.
For `CC1=C(/C=C/C(C)=C/C=C/C(C)=C/C=C/C=C(C)/C=C/C=C(C)/C=C/C2=C(C)C(=O)[C@@H](O)CC2(C)C)C(C)(C)C[C@H](O)C1=O` [astaxanthin], the “potency as anti-oxidant protective agent versus other carotenoids” value [2] is listed as “roughly ten times the potency”.
In the case of `CC1=C(/C=C/C(C)=C/C=C/C(C)=C/C=C/C=C(C)/C=C/C=C(C)/C=C/C2=C(C)C[C@@H](O)CC2(C)C)C(C)(C)C[C@H](O)C1` [zeaxanthin], the solubility in water [3] is given as “not soluble in water”, the “No Adverse Effect Level (NOAEL)” value [4] is given as 1200 mg/day and the skin color change ([5]; Example 1, about 60 mg/day roughly 2 weeks, then about 80 mg/day for a week) is given as “noticeable change in the color and tint of their skin”. The skin color change ([5]; Example 2 coworker, 40 mg/day) was “slight but noticeable darkening of their skin”, the skin color change ([5]; Example 2 coworker, 80 mg/day during several week-long periods) was “noticeably darker” and the skin color change ([5]; Example 3 coworker, 40 mg/day for a couple of weeks) was “mildly darker and more tanned shade”. The skin color change ([5]; Example 4 coworker, 10 mg/day) was “could not detect any change in their skin color”, the skin coloration ([5]; all volunteers who ingested 30 mg or more per day) was “darkened coloration” and the skin color change ([5]; first inventor, 30 mg/day for three weeks) was “slightly perceptible color change in the palms of the hands”. The “time for mild redness to convert to normal suntan” value ([6]; Example 1, about 60 then 80 mg/day) was “less than 24 hours”, the “sunburn after prolonged direct sunlight” value ([6]; Example 1, about 60 then 80 mg/day, Caribbean) was “did not get sunburned in the normal manner” and the “sunburn after prolonged sun exposure without sun-blocking lotion” value ([6]; Example 2 coworker, up to 80 mg/day) was “excellent protection against sunburn”. The “sunburn after prolonged sun exposure with no protective lotion” value ([6]; Example 3 coworker, 40 mg/day) was “had not suffered any sunburns”, the “sunburn after prolonged session of exposure to the sun” value ([6]; Example 4 coworker, 10 mg/day) was “suffered a noticeable sunburn” and the fecal coloration ([7]; high dosages, humans) was “changes in fecal coloration”. For the same molecule, the adverse effects ([7]; second inventor, 80 mg/day) was “no adverse effects”, the “dosage response in circulating blood concentrations” value [8] was “valid dosage response” and the “MED increase, post-ingestion compared to pre-ingestion” value ([9]; each volunteer of the UV lamp tests, 30 mg/day or higher) was over 30%. The “MED level relative to baseline value” ([9]; first inventor, 60 mg/day for another 3 weeks, baseline 7) was “more than double”, the “post-ingestion MED (minimal erythemal dosage)” value (from here on “post-ingestion MED”) ([9]; first inventor, oral 30 mg/day for 3 weeks, baseline 7.0 minutes, on top of anti-oxidant regimen) was 10.5 min and the “post-ingestion MED” value ([9]; first inventor, then 60 mg/day for another 3 weeks, baseline 7.0 minutes) was 16 min. For the same molecule, the “MED value relative to baseline” value ([9]; second volunteer, 60 mg/day for 20 days) was “doubled”, the “post-ingestion MED” value ([9]; second volunteer, 60 mg/day for 20 days, baseline 5.0 minutes) was 10 min and the “redness of longest-duration UV-exposed skin patches” value ([9]; two subjects after ingesting zeaxanthin, UV up to >20 minutes and up to 15 minutes) was “plateau effect”. For the same molecule, the “peeling or flaking of clearly UV-burned spots” value ([9]; two subjects, post-ingestion tests, after several days) was “did not begin peeling or flaking”.
For `CC(C)=CCC/C(C)=C/C=C/C(C)=C/C=C/C(C)=C/C=C/C=C(C)/C=C/C=C(C)/C=C/C=C(\C)CCC=C(C)C` [lycopene], the “amount of carotenoid needed” value [1] is listed as 0.05 nmol/mg protein.
For `CC1=C(/C=C/C(C)=C/C=C/C(C)=C/C=C/C=C(C)/C=C/C=C(C)/C=C/C2=C(C)CCCC2(C)C)C(C)(C)CCC1` [β-carotene], the “oxidant properties in cultured skin cells” value [10] is listed as “unexpected prooxidant properties”, the “elevation of risk of lung cancer” value [11] is listed as about 30% and the “effective dosage level to treat skin diseases” value [12] is listed as 180 mg/day. For the same molecule, the “amount of carotenoid needed” value [1] was 0.40 nmol/mg protein.
For `CC1=C(/C=C/C(C)=C/C=C/C(C)=C/C=C/C=C(C)/C=C/C=C(C)/C=C/C2=C(C)C(=O)CCC2(C)C)C(C)(C)CCC1=O` [canthaxanthin], the retinal side effect [13] is given as “canthaxanthin crystals were being formed and deposited in the retinas”.
